Reference: US10596296B2, “Heparan sulphates” (Agency for Science, Technology and Research, priority 2014, dated 2020)

Key:
[1] = test system: chondrogenic differentiation of hMSCs; assay: qPCR of day 3 chondrogenic micromass pellets (Example 1); type: cell-based, human; details: day 3; 10 ng/ml TGF-β1 with 10 μg/ml heparin
Description: Chondrogenic differentiation was carried out using a modified micromass culture system as described by Zhang et al. (32). Briefly, passage 4 hMSCs were harvested and resuspended in chemically defined chondrogenic media (PT-3003, Lonza) at 2×10^7 cells/ml. Droplets of 12.5 μl were then seeded into the middle of each well in a 24-well plate and left to adhere at 37° C. for 2 h, after which, 500 μl of chondrogenic media supplemented with either 10 ng/ml of TGF-β1 (100-21C, PeproTech) alone (Media) or TGF-β1 with 10 μg/ml of heparin (Sigma-Aldrich) (Media+Hep) was added to each well. The cell droplets coalesced into spherical masses after 24 h and the micromasses harvested on day 3. Human MSCs were cultured in 6-well plates in basal media for 24 h at a density of 10,000 cells/cm^2. TGF-β1 treatments were then prepared at either 1 ng/ml or 5 ng/ml alone or in the presence of either 10 μg/ml or 40 μg/ml of full length heparin, or 1 ng/ml of TGF-β1 with 10 μg/ml size-fractionated or selectively desulfated heparin, HS^PM, HS16+ or HS16−, and incubated at room temperature for 10 min before being added to the cells. Latent TGF-β1 (LTGF-β1) treatments were similarly prepared at 3.3 ng/ml alone or with 10 μg/ml of the various GAGs described above. For inhibitor studies, the cells were pre-treated for 30 min with 10 μM SB431542 (Sigma-Aldrich) or DMSO before treatment with TGF-β1. The cells were then subjected to the various TGF-β1 treatments for 1, 6 or 24 h and lysed in 2× Laemmli buffer, before being resolved on a 4-12% SDS-PAGE gel. Samples were then immunoblotted with antibodies against SMAD2/3 (#3102, Cell Signaling), phosphorylated SMAD2 (pSMAD2, #3108, Cell Signaling), phosphorylated SMAD3 (pSMAD3, #9520, Cell Signaling) and actin (MAB1501R, Millipore). Densitometry was carried out using Quantity One software (version 4.6.6, Bio-Rad). Total RNA was isolated from chondrogenic micromass pellets using TRIZOL reagent (Invitrogen, Life Technologies) according to the manufacturer's protocol. Reverse transcription was carried out on 1 μg RNA using the SuperScript® VILO™ cDNA Synthesis Kit (Invitrogen, Life Technologies) following the manufacturer's instructions, with the incubation at 42° C. being carried out for 2 h instead of 1 h. Each qPCR contained 40 ng cDNA, 1 μl TaqMan® primer-probe mix per gene, and 10 μl Taqman® Fast Universal PCR Master Mix (Applied Biosystems, Life Technologies) in a final volume of 20 μl. Thermal cycling conditions were 95° C. for 20 s, followed by 45 cycles of 95° C. for 3 s and 60° C. for 30 s. Each qPCR was run in duplicate and gene expression was normalized to HPRT1 expression to obtain the ΔCt value. […] Relative expression levels for each primer set were expressed as fold changes by the 2^−ΔΔCt method (36). […]

[2] = test system: chondrogenic differentiation of hMSCs; assay: qPCR of chondrogenic micromass pellets (Example 2); type: cell-based, human; details: for SOX9 expression / COMP expression: day 3
Description: Total RNA was isolated from chondrogenic micromass pellets using TRIZOL reagent (Life Technologies, CA, USA) according to the manufacturer's protocol. Reverse transcription was carried out on 1 μg RNA using the SuperScript® VILO™ cDNA Synthesis Kit (Life Technologies) following the manufacturer's instructions, with the incubation at 42° C. being carried out for 2 h instead of 1 h. Each qPCR contained 40 ng cDNA, 1 μL TaqMan® primer-probe mix per gene, and 10 μL Taqman® Fast Universal PCR Master Mix (Life Technologies) in a final volume of 20 μL. Thermal cycling conditions were 95° C. for 20 s, followed by 45 cycles of 95° C. for 1 s and 60° C. for 20 s. Each qPCR was run in duplicate and gene expression was normalised to HPRT1 expression to obtain the ΔCt value. The average value of biological triplicates was taken. Chondrogenic micromass pellets cultured in media without GAG or TGF-β1 were used as controls (ΔΔCt). Relative expression levels for each primer set were expressed as fold changes by the 2-ΔΔCt method [Livak, K. J. and T. D. Schmittgen, Analysis of Relative Gene Expression Data Using Real-Time Quantitative PCR and the 2-ΔΔCT Method. Methods, 2001. 25(4): p. 402-408]. The following TaqMan® primer-probe assays (Life technologies) were used:
In order to assess the effects of HS16+ve on the chondrogenic differentiation of hMSCs in vitro, it was first necessary to establish the effects of TGF-β1 alone. Chondrogenic differentiation was carried out using a modified micromass culture system. [Zhang, L., et al., Chondrogenic differentiation of human mesenchymal stem cells: a comparison between micromass and pellet culture systems. Biotechnol Lett, 2010. 32(9): p. 1339-1346.]. Briefly, passage 4 hMSCs were harvested and resuspended in chemically defined chondrogenic media (PT-3003, Lonza, MD, USA) at 2×10^7 cells/mL. Droplets of 12.5 μL were then seeded into the middle of each well in a 24-well plate and left to adhere at 37° C. for 2 h, after which, 500 μL of chondrogenic media supplemented with either 1 or 10 ng/mL of TGF-β1 (100-210, PeproTech) alone or with either 5 or 10 μg/mL of heparin (Sigma-Aldrich), porcine mucosal HS (HSPM) (Celsus laboratories), HS16+ve or HS16-ve was added to each well. The cell droplets coalesced into spherical masses after 24 h. Media was changed every 3 days and the micromasses harvested on days 3, 7, 14 and 21.
Next, hMSCs were differentiated for 21 days in the presence of 1 ng/mL TGF-β1 alone (1 TGF-β1) or in combination with 10 μg/mL of GAG (heparin, HSPM, HS16+ve or HS16−ve) or with 10 ng/mL TGF-β1 (10 TGF-β1) as a positive control.

[3] = 10 μg/mL heparin with 10 ng/mL TGF-β1

heparin
COMP mRNA transcripts relative to Media (TGF-β1 alone) [1]: ~5 fold | SOX9 mRNA transcripts relative to Media (TGF-β1 alone) [1]: ~5 fold | COMP expression increase relative to 1 ng/mL TGF-β1 alone ([2]; 21 days, 1 ng/mL TGF-β1 with 10 μg/mL GAG): ~2.5 fold | SOX9 expression ([2]; 5 μg/mL heparin, regardless of the amount of TGF-β1): did not significantly alter | SOX9 expression ([2]; 10 μg/mL heparin on its own): did not affect SOX9 expression | SOX9 expression ([2]; 10 μg/mL heparin with 1 ng/mL TGF-β1): increase the expression of SOX9 | COMP expression [2, 3]: reduced COMP expression levels | SOX9 expression [2, 3]: unable to bring about any change in SOX9 expression | COMP expression ([2]; 5 or 10 μg/mL heparin on their own): slightly reduce | COMP expression ([2]; either dose of heparin with 10 ng/mL TGF-β1): unable to elicit a further increase in COMP expression | COMP expression ([2]; heparin with 1 ng/mL TGF-β1): increase COMP expression levels in a dose dependent manner | Aggrecan expression ([2]; day 21, 1 ng/mL TGF-β1 with 10 μg/mL GAG): similar
